Values of other authors in patent publication US10500196B2 (Aequus Pharmaceuticals Inc., priority 2015, dated 2019).

Details: oral DICLEGIS tablet

Question: Which “absorption when administered with food” value does the source give for `Cc1ncc(CO)c(CO)c1O.Cl` [Pyridoxine Hydrochloride, 3,4-pyridinedimethanol,5-hydroxy-6-methyl-,hydrochloride] here?
Answer: delayed

Question: And the bioavailability with food?
Answer: reduces
